# In patent US9746484B2, “Binding partners specific for vitamin D epimers in vitamin D assays” (Siemens Healthcare Diagnostics Inc., priority 2014, dated 2017):
# Values joined by “and” are separate entries in the source; they are usually repeats but may differ in a detail not shown here. Equal entries are not always repeated.
# System: biotinylated monoclonal anti-25OH vitamin D antibody
# Assay: LOCI 25(OH)D immunoassay, 3-epimer cross-reactivity without blocking antibody
# Format: binding, sheep
# Details: no anti-3-epimer antibody; for Avg. Cross-reactivity, No anti-3-epimer VD Ab Added: average of ten patient sera spiked with 100 ng/mL 3-epimer vitamin D3
# Experimental: The 25OH Vitamin D (25(OH)D) immunoassay format employed was a homogeneous competitive chemiluminescent immunoassay based on LOCI® assay technology. The assay was performed on the Siemens Dimension® EXL automated integrated clinical chemistry system (Siemens Healthcare Diagnostics Inc., Deerfield, Ill.). The assay measured the total concentration of 25(OH)D2 and/or 25(OH)D3 in serum and plasma samples. The LOCI® assay reagents included a releasing reagent, two synthetic bead reagents and a biotinylated monoclonal anti-25OH vitamin D antibody reagent. The first bead reagent (designated “Sensibeads”) was coated with streptavidin and contained a photosensitive dye. The second bead reagent (designated “Chemibeads”) was coated with a 25(OH)D3 analog and contained chemiluminescent dye. Sample was incubated with the releasing reagent to release 25(OH)D molecules including 3-epimeric compounds from vitamin D binding proteins. The reaction mixture was then incubated with biotinylated antibody to form a 25(OH)D-biotinylated antibody complex. […] Chemibeads were added to bind excess free biotinylated antibody. Sensibeads were then added to bind to the biotin portion of the biotinylated antibody. Aggregates of Chemibead-analog/antibody-biotin/streptavidin-Sensibeads were formed as a result. Illumination of the reaction mixture with light at 680 nm generates singlet oxygen from Sensibeads, which diffused into the Chemibeads and triggered a chemiluminescent reaction. The resulting chemiluminescent signal was measured at 612 nm and is inversely proportional to the concentration of total 25(OH)D in the sample.
# The effect of adding anti-3-epimer-VD antibody 8F10.1 (anti-3-epimer VD Ab) on the 3-epimer cross-reactivity for the assay is shown in Table 1. […] The 3-epimer cross-reactivity was calculated by the difference between 25(OH)D2 or 25(OH)D3 values with and without the spiked 3-epimer compound divided by the amount of added 3-epimer compound.
compound,measurement,setting,value
"C=C1CC[C@@H](O)C/C1=C/C=C1\CCC[C@]2(C)[C@@H]([C@H](C)CCCC(C)(C)O)CC[C@@H]12 [3-epimer D3, 3-epi-25-hydroxyvitamin D3]","Avg. Cross-reactivity, No anti-3-epimer VD Ab Added",,13.7%
same,"Avg. Cross-reactivity, No anti-3-epimer VD Ab Added",listed as 3-epimer vitamin D3 compound,13.7%
same,"3-epimer Cross-Reactivity, No anti-3-epimer VD Ab Added",individual patient sera (Sample ID 1-10) spiked with 100 ng/mL 3-epimer vitamin D3,17.9% (2×) and 11.9% and 12.6% and 16.1% and 10.2% and 9.1% and 10.5% and 15.3% and 15.5%
